Assay results: patent US6525001B1, “Substituted pyrimidine and pyridine herbicides” (Mid-American Commercialization Corporation, priority 1997, dated 2003)

Columns and labels:
Format in all cases: in vivo
Design in all cases: key: 0 is no effect; 10 is complete control
[1] = tested on: smallflower flatsedge (Cyperus difformis); assay: Test B flood test
In short: (§1)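 Flood test on plants grown to the 2-leaf stage; treated plants kept in greenhouse twelve to sixteen days, then visually rated against controls on a 0 (no effect) to 10 (complete control) scale.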

rice (Oryza sativa) = assay: Test B flood test
In short: as §1

[2] = tested on: duck salad (Heteranthera limosa); assay: Test B flood test
In short: as §1

[3] = tested on: bamyardgrass (Echinochloa crus-galli); assay: Test B flood test
In short: as §1

corn (Zea mays) = assay: Test B pre-/postemergence; conditions: for Corn plant response rating: Preemergence
In short: (§2)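 Scored visually 0 (none) to 10 (complete control) against untreated plants after twelve to sixteen greenhouse days. Test chemicals, formulated in surfactant-containing non-phytotoxic solvent, applied to soil after planting and, separately, onto 1- to 4-leaf (2–18 cm) plants.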

[4] = tested on: sugar beet (Beta vulgaris); assay: Test B pre-/postemergence
In short: as §2

[5] = tested on: momingglory (Ipomoea hederacea); assay: Test B pre-/postemergence
In short: as §2

rape (Brassica napus) = assay: Test B pre-/postemergence
In short: as §2

[6] = tested on: crabgrass (Digitaria sanguinalis); assay: Test B pre-/postemergence; conditions: for Crabgrass plant response rating: Preemergence
In short: as §2

[7] = tested on: purple nutsedge (Cyperus rotundus); assay: Test B pre-/postemergence
In short: as §2

[8] = tested on: pigweed (Amaranthus retroflexus); assay: Test B pre-/postemergence
In short: as §2

[9] = tested on: wheat (Triticum aestivum); assay: Test B pre-/postemergence
In short: as §2

soybean (Glycine max) = assay: Test B pre-/postemergence
In short: as §2

[10] = tested on: giant foxtail (Setaria faberii); assay: Test B pre-/postemergence
In short: as §2

[11] = tested on: cocklebur (Xanthium strumarium); assay: Test B pre-/postemergence; conditions: for Cocklebur plant response rating: Preemergence
In short: as §2

wild oat (Avena fatua) = assay: Test B pre-/postemergence
In short: as §2

[12] = tested on: velvetleaf (Abutilon theophrasti); assay: Test B pre-/postemergence
In short: as §2

[13] = tested on: blackgrass (Alopecurus myosuroides); assay: Test B pre-/postemergence; conditions: for Blackgrass plant response rating: Preemergence
In short: as §2

[14] = tested on: bedstraw (Galium aparine); assay: Test B pre-/postemergence; conditions: for Bedstraw plant response rating: Preemergence
In short: as §2

[15] = tested on: broadleaf signalgrass (Brachiaria decumbens); assay: Test B pre-/postemergence; conditions: for B. signalgrass plant response rating: Preemergence
In short: as §2

[16] = Rate 62 g/ha, Postemergence (flood test)
[17] = Rate 125 g/ha, Postemergence section (flood test species)
[18] = Rate 250 g/ha, Postemergence (flood test species)
[19] = Rate 125 g/ha, Postemergence, flood test
[20] = Rate 250 g/ha, Postemergence (so in the source)

## Cc1cnc(-c2ccc(F)cc2F)nc1Cc1cccc(C#N)c1 [Compound 34]
[1]; [16]
  Plant response rating, S. Flatsedge: 2
[1]; [17]
  S. Flatsedge plant response rating: 2
[1]; [18]
  Plant response rating, S. Flatsedge: 3
Rice (Oryza sativa); [16]
  Plant response rating, Rice: 1
Rice (Oryza sativa); [17]
  Rice plant response rating: 1
Rice (Oryza sativa); [18]
  Plant response rating, Rice: 1
[2]; [16]
  Plant response rating, Ducksalad: 0
[2]; [19]
  Plant response rating, Ducksalad: 0
[2]; [18]
  Plant response rating, Ducksalad: 0
[3]; [16]
  Plant response rating, Barnyardgrass: 0
[3]; [19]
  Plant response rating, Barnyardgrass: 0
[3]; [18]
  Plant response rating, Barnyardgrass: 1
Corn (Zea mays); Rate 62 g/ha, Postemergence
  Plant response rating, Corn: 1
Corn (Zea mays); Rate 62 g/ha
  Corn plant response rating: 0
Corn (Zea mays); Rate 125 g/ha, Postemergence
  Plant response rating, Corn: 1
Corn (Zea mays); Rate 125 g/ha
  Corn plant response rating: 0
Corn (Zea mays); Rate 250 g/ha, Postemergence
  Plant response rating, Corn: 1
Corn (Zea mays); [20]
  Plant response rating, Corn: 0
[4]; Rate 62 g/ha, Postemergence
  Plant response rating, Sugarbeets: 8
[4]; Rate 62 g/ha, Preemergence
  Sugarbeets plant response rating: 0
[4]; Rate 125 g/ha, Postemergence
  Sugarbeets plant response rating: 8
[4]; Rate 125 g/ha, Preemergence
  Plant response rating, Sugarbeets: 0
[4]; Rate 250 g/ha, Postemergence
  Plant response rating, Sugarbeets: 9
[4]; [20]
  Plant response rating, Sugarbeets: 0
[5]; Rate 62 g/ha, Postemergence
  Plant response rating, Morningglory: 1
[5]; Rate 62 g/ha, Preemergence
  Morningglory plant response rating: 0
[5]; Rate 125 g/ha, Postemergence
  Morningglory plant response rating: 1
[5]; Rate 125 g/ha, Preemergence
  Morningglory plant response rating: 0
[5]; Rate 250 g/ha, Postemergence
  Plant response rating, Morningglory: 2
[5]; [20]
  Plant response rating, Morningglory: 0
Rape (Brassica napus); Rate 62 g/ha, Postemergence
  Plant response rating, Rape: 2
Rape (Brassica napus); Rate 62 g/ha, Preemergence
  Rape plant response rating: 0
Rape (Brassica napus); Rate 125 g/ha, Postemergence
  Rape plant response rating: 3
Rape (Brassica napus); Rate 125 g/ha, Preemergence
  Rape plant response rating: 0
Rape (Brassica napus); Rate 250 g/ha, Postemergence
  Plant response rating, Rape: 3
Rape (Brassica napus); [20]
  Plant response rating, Rape: 0
[6]; Rate 62 g/ha, Postemergence
  Plant response rating, Crabgrass: 0
[6]; Rate 62 g/ha
  Crabgrass plant response rating: 0
[6]; Rate 125 g/ha, Postemergence
  Plant response rating, Crabgrass: 1
[6]; Rate 125 g/ha
  Crabgrass plant response rating: 0
[6]; Rate 250 g/ha, Postemergence
  Plant response rating, Crabgrass: 1
[6]; [20]
  Plant response rating, Crabgrass: 1
[7]; Rate 62 g/ha, Postemergence
  Plant response rating, Nutsedge: 0
[7]; Rate 62 g/ha, Preemergence
  Nutsedge plant response rating: 0
[7]; Rate 125 g/ha, Postemergence
  Nutsedge plant response rating: 0
[7]; Rate 125 g/ha, Preemergence
  Nutsedge plant response rating: 0
[7]; Rate 250 g/ha, Postemergence
  Plant response rating, Nutsedge: 0
[7]; [20]
  Plant response rating, Nutsedge: 0
[8]; Rate 62 g/ha, Postemergence
  Plant response rating, Redroot pigweed: 1
[8]; Rate 62 g/ha, Preemergence
  Redroot pigweed plant response rating: 0
[8]; Rate 125 g/ha, Postemergence
  Redroot pigweed plant response rating: 3
[8]; Rate 125 g/ha, Preemergence
  Redroot pigweed plant response rating: 0
[8]; Rate 250 g/ha, Postemergence
  Plant response rating, Redroot pigweed: 6
[8]; [20]
  Plant response rating, Redroot pigweed: 2
[9]; Rate 62 g/ha, Postemergence
  Wheat plant response rating: 0
[9]; Rate 62 g/ha, Preemergence
  Wheat plant response rating: 0
[9]; Rate 125 g/ha, Postemergence
  Wheat plant response rating: 1
[9]; Rate 125 g/ha, Preemergence
  Plant response rating, Wheat: 0
[9]; Rate 250 g/ha, Postemergence
  Plant response rating, Wheat: 1
[9]; [20]
  Plant response rating, Wheat: 0
Soybean (Glycine max); Rate 62 g/ha, Postemergence
  Plant response rating, Soybean: 1
Soybean (Glycine max); Rate 62 g/ha, Preemergence
  Soybean plant response rating: 0
Soybean (Glycine max); Rate 125 g/ha, Postemergence
  Soybean plant response rating: 2
Soybean (Glycine max); Rate 125 g/ha, Preemergence
  Plant response rating, Soybean: 0
Soybean (Glycine max); Rate 250 g/ha, Postemergence
  Plant response rating, Soybean: 2
Soybean (Glycine max); [20]
  Plant response rating, Soybean: 0
[10]; Rate 62 g/ha, Postemergence
  Plant response rating, Giant foxtail: 0
[10]; Rate 62 g/ha, Preemergence
  Giant foxtail plant response rating: 0
[10]; Rate 125 g/ha, Postemergence
  Giant foxtail plant response rating: 1
[10]; Rate 125 g/ha, Preemergence
  Giant foxtail plant response rating: 0
[10]; Rate 250 g/ha, Postemergence
  Plant response rating, Giant foxtail: 1
[10]; [20]
  Plant response rating, Giant foxtail: 1
[11]; Rate 62 g/ha, Postemergence
  Plant response rating, Cocklebur: 2
[11]; Rate 62 g/ha
  Cocklebur plant response rating: 0
[11]; Rate 125 g/ha, Postemergence
  Plant response rating, Cocklebur: 2
[11]; Rate 125 g/ha
  Cocklebur plant response rating: 0
[11]; Rate 250 g/ha, Postemergence
  Plant response rating, Cocklebur: 8
[11]; [20]
  Plant response rating, Cocklebur: 0
Wild oat (Avena fatua); Rate 62 g/ha, Postemergence
  Wild oats plant response rating: 0
Wild oat (Avena fatua); Rate 62 g/ha, Preemergence
  Wild oats plant response rating: 0
Wild oat (Avena fatua); Rate 125 g/ha, Postemergence
  Wild oats plant response rating: 1
Wild oat (Avena fatua); Rate 125 g/ha, Preemergence
  Plant response rating, Wild oats: 0
Wild oat (Avena fatua); Rate 250 g/ha, Postemergence
  Plant response rating, Wild oats: 2
Wild oat (Avena fatua); [20]
  Plant response rating, Wild oats: 0
[12]; Rate 62 g/ha, Postemergence
  Plant response rating, Velvetleaf: 1
[12]; Rate 62 g/ha, Preemergence
  Velvetleaf plant response rating: 0
[12]; Rate 125 g/ha, Postemergence
  Velvetleaf plant response rating: 1
[12]; Rate 125 g/ha, Preemergence
  Plant response rating, Velvetleaf: 0
[12]; Rate 250 g/ha, Postemergence
  Plant response rating, Velvetleaf: 1
[12]; [20]
  Plant response rating, Velvetleaf: 0
[13]; Rate 62 g/ha, Postemergence
  Plant response rating, Blackgrass: 0
[13]; Rate 62 g/ha
  Blackgrass plant response rating: 0
[13]; Rate 125 g/ha, Postemergence
  Plant response rating, Blackgrass: 1
[13]; Rate 125 g/ha
  Blackgrass plant response rating: 0
[13]; Rate 250 g/ha, Postemergence
  Plant response rating, Blackgrass: 1
[13]; [20]
  Plant response rating, Blackgrass: 0
[14]; Rate 62 g/ha, Postemergence
  Plant response rating, Bedstraw: 2
[14]; Rate 62 g/ha
  Bedstraw plant response rating: 0
[14]; Rate 125 g/ha, Postemergence
  Plant response rating, Bedstraw: 3
[14]; Rate 125 g/ha
  Bedstraw plant response rating: 0
[14]; Rate 250 g/ha, Postemergence
  Plant response rating, Bedstraw: 7
[14]; [20]
  Plant response rating, Bedstraw: 0
[15]; Rate 62 g/ha, Postemergence
  Plant response rating, B. signalgrass: 1
[15]; Rate 62 g/ha
  B. signalgrass plant response rating: 0
[15]; Rate 125 g/ha, Postemergence
  Plant response rating, B. signalgrass: 1
[15]; Rate 125 g/ha
  B. signalgrass plant response rating: 0
[15]; Rate 250 g/ha, Postemergence
  Plant response rating, B. signalgrass: 1
[15]; Rate 250 g/ha, Postemergence as printed in head r139 (second section for compounds 26-50)
  Plant response rating, B. signalgrass: 1
